What follows are compounds tested against T1, human LTA4 hydrolase (Homo sapiens, UniProt P09960) (assay: LTA4H Enzyme assay (cleavage of Arg-AMC, fluorescence)). Details: not given.
T1 sequence (P09960 1-611): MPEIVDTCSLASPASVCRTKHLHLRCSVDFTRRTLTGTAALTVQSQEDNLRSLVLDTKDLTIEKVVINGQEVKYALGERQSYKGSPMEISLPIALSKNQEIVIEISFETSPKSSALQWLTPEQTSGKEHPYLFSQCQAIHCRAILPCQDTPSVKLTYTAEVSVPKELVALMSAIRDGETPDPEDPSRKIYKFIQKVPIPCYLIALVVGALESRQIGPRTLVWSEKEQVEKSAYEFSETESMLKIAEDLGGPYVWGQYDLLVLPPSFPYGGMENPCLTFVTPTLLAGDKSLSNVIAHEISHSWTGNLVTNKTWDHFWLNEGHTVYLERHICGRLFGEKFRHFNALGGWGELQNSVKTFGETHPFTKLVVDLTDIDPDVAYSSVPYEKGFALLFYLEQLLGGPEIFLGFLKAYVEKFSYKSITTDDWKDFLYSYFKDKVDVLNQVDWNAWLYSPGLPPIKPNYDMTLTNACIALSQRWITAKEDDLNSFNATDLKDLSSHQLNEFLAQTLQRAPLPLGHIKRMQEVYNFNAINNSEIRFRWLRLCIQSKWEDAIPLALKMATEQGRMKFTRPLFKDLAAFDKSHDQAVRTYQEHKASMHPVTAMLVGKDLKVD
Format: biochemical
Protocol: The compounds of the invention are assessed for the ability to interact with human LTA4 hydrolase in an enzymatic assay that measures the ability of the enzyme to cleave the peptide bond of arginyl-aminomethylcoumarin (Arg-AMC). LTA4H Enzyme (1 nM final), Arg-AMC substrate (50 μM final), and compound are combined in a reaction buffer (50 mM Tris-HCl (pH 7.5), 100 mM KCl, 0.5% bovine serum albumin) at room temperature for 1 h. The formation of product is assessed by measuring the fluorescence of aminomethylcoumarin product (excitation wavelength 380 nm/emission wavelength 460 nm).

SMILES	IC50
CN(C)CCN(C)Cc1ccc([C@H]2COc3ccccc3O2)cc1 [Example 79, N-{4-[(2S)-2,3-dihydro-1,4-benzodioxin-2-yl]benzyl}-N,N′,N′-trimethylethane-1,2-diamine]	0.51 nM

Same assay, conditions: LTA4H Enzyme 1 nM, Arg-AMC substrate 50 μM, room temperature 1 h, fluorescence; read-out: IC50 values of LTA4H Enzyme assay

SMILES	IC50
F[C@H]1CCN(Cc2ccc(C3COc4ccccc4O3)cc2)C1 (mixture of isomers) [Example 115, (3S)-1-[4-(2,3-dihydro-1,4-benzodioxin-2-yl)benzyl]-3-fluoropyrrolidine]	3.03 nM
OC1CCN(Cc2ccc([C@H]3COc4ccccc4O3)cc2)CC1 (single isomer, unassigned) [Example 192]	0.43 nM
OC1CCN(Cc2ccc([C@@H]3COc4ccccc4O3)cc2)CC1 (single isomer, unassigned) [Example 193]	5.35 nM
O=C1NCCC12CCN(Cc1ccc([C@H]3COc4ccccc4O3)cc1)CC2 (single isomer, unassigned) [Example 194]	0.15 nM
O=C1NCCC12CCN(Cc1ccc([C@@H]3COc4ccccc4O3)cc1)CC2 (single isomer, unassigned) [Example 195]	1.59 nM
c1ccc2c(c1)OC[C@H](c1ccc(CN3CCCC3)cc1)O2 (single isomer, unassigned) [Example 196]	0.39 nM
c1ccc2c(c1)OC[C@@H](c1ccc(CN3CCCC3)cc1)O2 (single isomer, unassigned) [Example 197]	2.69 nM
c1ccc2c(c1)OC[C@H](c1ccc(CN3CCOCC3)cc1)O2 (single isomer, unassigned) [Example 198]	2.28 nM
c1ccc2c(c1)OC[C@@H](c1ccc(CN3CCOCC3)cc1)O2 (single isomer, unassigned) [Example 199]	40.1 nM
CN(C)C(=O)C1CCN(Cc2ccc([C@H]3COc4ccccc4O3)cc2)CC1 [Example 8, 1-{4-[(2S)-2,3-dihydro-1,4-benzodioxin-2-yl]benzyl}-N,N-dimethylpiperidine-4-carboxamide]	0.32 nM
CN(Cc1ccc([C@H]2COc3ccccc3O2)cc1)C1CCN(S(C)(=O)=O)CC1 [Example 13, N-{4-[(2S)-2,3-dihydro-1,4-benzodioxin-2-yl]benzyl}-N-methyl-1-(methylsulfonyl)piperidin-4-amine]	0.36 nM
O=C(O)[C@@H]1CCCN(Cc2ccc([C@H]3COc4ccccc4O3)cc2)C1 [Example 19, (3R)-1-{4-[(2S)-2,3-dihydro-1,4-benzodioxin-2-yl]benzyl}piperidine-3-carboxylic acid]	0.73 nM
O=C(O)[C@H]1CCCN(Cc2ccc([C@H]3COc4ccccc4O3)cc2)C1 [Example 20, (3S)-1-{4-[(2S)-2,3-dihydro-1,4-benzodioxin-2-yl]benzyl}piperidin-3-carboxylic acid]	1.3 nM
OC(C1CCN(Cc2ccc([C@H]3COc4ccccc4O3)cc2)CC1)C(F)(F)F (stereo partly drawn) [Example 21, 1-(1-{4-[(2S)-2,3-dihydro-1,4-benzodioxin-2-yl]benzyl}piperidin-4-yl)-2,2,2-trifluoroethanol]	4.43 nM
OC(C1CCN(Cc2ccc([C@H]3COc4ccccc4O3)cc2)CC1)(C(F)(F)F)C(F)(F)F [Example 22, 2-(1-{4-[(2S)-2,3-dihydro-1,4-benzodioxin-2-yl]benzyl}piperidin-4-yl)-1,1,1,3,3,3-hexafluoropropan-2-ol]	200 nM
O=C(O)C1CN(Cc2ccc([C@H]3COc4ccccc4O3)cc2)Cc2ccccc21 (stereo partly drawn) [Example 56, 2-{4-[(2S)-2,3-dihydro-1,4-benzodioxin-2-yl]benzyl}-1,2,3,4-tetrahydroisoquinoline-4-carboxylic acid]	6.08 nM
O=C(O)[C@@H]1CC[C@H](NCc2ccc([C@H]3COc4ccccc4O3)cc2)C1 [Example 57, (1R,3S)-3-({4-[(2S)-2,3-dihydro-1,4-benzodioxin-2-yl]benzyl}amino)cyclopentane-carboxylic acid]	13.7 nM
CC(C)(C)C(CC(=O)O)NCc1ccc([C@H]2COc3ccccc3O2)cc1 (stereo partly drawn) [Example 58, 3-({4-[(2S)-2,3-dihydro-1,4-benzodioxin-2-yl]benzyl}amino)-4,4-dimethylpentanoic acid]	1.36 nM
O=C(O)C1(NCc2ccc([C@H]3COc4ccccc4O3)cc2)CCCC1 [Example 59, 1-({4-[(2S)-2,3-dihydro-1,4-benzodioxin-2-yl]benzyl}amino)cyclopentane-carboxylic acid]	89.2 nM
CN(CC(=O)O)Cc1ccc([C@H]2COc3ccccc3O2)cc1 [Example 60, N-{4-[(2S)-2,3-dihydro-1,4-benzodioxin-2-yl]benzyl}-N-methylglycine]	31 nM

SMILES	IC50
CC(=O)N1CC[C@H](NCc2ccc([C@H]3COc4ccccc4O3)cc2)C1 [Example 65, 1-[(3S)-3-({4-[(2S)-2,3-dihydro-1,4-benzodioxin-2-yl]benzyl}amino)pyrrolidin-1-yl]ethanone]	1.15 nM
NC(=O)[C@H]1CC[C@H](NCc2ccc([C@H]3COc4ccccc4O3)cc2)CC1 [Example 66, trans-4-({4-[(2S)-2,3-dihydro-1,4-benzodioxin-2-yl]benzyl}amino)cyclohexane-carboxamide]	1.79 nM
OCCC1CCN(Cc2ccc([C@H]3COc4ccccc4O3)cc2)CC1 [Example 70, 2-(1-{4-[(2S)-2,3-dihydro-1,4-benzodioxin-2-yl]benzyl}piperidin-4-yl)ethanol]	0.57 nM
CC(C)NCc1ccc([C@H]2COc3ccccc3O2)cc1 [Example 71, N-{4-[(2S)-2,3-dihydro-1,4-benzodioxin-2-yl]benzyl}propan-2-amine]	1.88 nM
COCC(C)NCc1ccc([C@H]2COc3ccccc3O2)cc1 (stereo partly drawn) [Example 72, N-{4-[(2S)-2,3-dihydro-1,4-benzodioxin-2-yl]benzyl}-1-methoxypropan-2-amine]	1.8 nM
CCCNCc1ccc([C@H]2COc3ccccc3O2)cc1 [Example 73, N-{4-[(2S)-2,3-dihydro-1,4-benzodioxin-2-yl]benzyl}propan-1-amine]	3.65 nM
CCN(C)Cc1ccc([C@H]2COc3ccccc3O2)cc1 [Example 74, N-{4-[(2S)-2,3-dihydro-1,4-benzodioxin-2-yl]benzyl}-N-methylethanamine]	1 nM
CN(C)Cc1ccc([C@H]2COc3ccccc3O2)cc1 [Example 75, 1-{4-[(2S)-2,3-dihydro-1,4-benzodioxin-2-yl]phenyl}-N,N-dimethylmethanamine]	4.51 nM
O[C@H]1CC[C@H](NCc2ccc([C@H]3COc4ccccc4O3)cc2)CC1 [Example 76, trans-4-({4-[(2S)-2,3-dihydro-1,4-benzodioxin-2-yl]benzyl}amino)cyclohexanol]	1.9 nM
CC1CCCN1Cc1ccc([C@H]2COc3ccccc3O2)cc1 (stereo partly drawn) [Example 77, 1-{4-[(2S)-2,3-dihydro-1,4-benzodioxin-2-yl]benzyl}-2-methylpyrrolidine]	0.18 nM
OC1CCCN(Cc2ccc([C@H]3COc4ccccc4O3)cc2)C1 (stereo partly drawn) [Example 78, 1-{4-[(2S)-2,3-dihydro-1,4-benzodioxin-2-yl]benzyl}piperidin-3-ol]	1.4 nM
OCCN(Cc1ccc([C@H]2COc3ccccc3O2)cc1)C1CCCCC1 [Example 80, 2-(cyclohexyl{4-[(2S)-2,3-dihydro-1,4-benzodioxin-2-yl]benzyl}amino)ethanol]	0.71 nM
CC(=O)NC1CCN(Cc2ccc([C@H]3COc4ccccc4O3)cc2)C1 (stereo partly drawn) [Example 82, N-(1-{4-[(2S)-2,3-dihydro-1,4-benzodioxin-2-yl]benzyl}pyrrolidin-3-yl)acetamide]	0.2 nM
c1ccc2c(c1)OC[C@H](c1ccc(CN3CCC[C@H]4CCCC[C@@H]43)cc1)O2 [Example 85, (4aR,8aS)-1-{4-[(2S)-2,3-dihydro-1,4-benzodioxin-2-yl]benzyl}decahydroquinoline]	0.45 nM
NC(=O)[C@H]1CCCC[C@H]1NCc1ccc([C@H]2COc3ccccc3O2)cc1 [Example 86, (1S,2R)-2-({4-[(2S)-2,3-dihydro-1,4-benzodioxin-2-yl]benzyl}amino)cyclohexane-carboxamide]	0.92 nM
O[C@@H]1CCN(Cc2ccc([C@H]3COc4ccccc4O3)cc2)C1 [Example 88, (3R)-1-{4-[(2S)-2,3-dihydro-1,4-benzodioxin-2-yl]benzyl}pyrrolidin-3-ol]	0.54 nM
OC[C@@H]1CCCC[C@H]1NCc1ccc([C@H]2COc3ccccc3O2)cc1 [Example 89, [(1R,2R)-2-({4-[(2S)-2,3-dihydro-1,4-benzodioxin-2-yl]benzyl}amino)cyclohexyl]methanol]	1.4 nM
OCC1CCN(Cc2ccc([C@H]3COc4ccccc4O3)cc2)CC1 [Example 90, (1-{4-[(2S)-2,3-dihydro-1,4-benzodioxin-2-yl]benzyl}piperidin-4-yl)methanol]	0.77 nM
O[C@H]1CCN(Cc2ccc([C@H]3COc4ccccc4O3)cc2)C1 [Example 91, (3S)-1-{4-[(2S)-2,3-dihydro-1,4-benzodioxin-2-yl]benzyl}pyrrolidin-3-ol]	0.54 nM
